Experimental data as given in patent publication US7435837B2, “Dihydrobenzofuranyl alkanamine derivatives and methods for using same” (Wyeth, priority 2003, dated 2008).

These compounds were tested against T1, human 5-hydroxytryptamine-2C (h5-HT2C) receptor (Homo sapiens, UniProt P28335) (assay: [125I]DOI binding to membranes of CHO cells expressing the human 5-HT2C receptor). Conditions: [125I]DOI radioligand, CHO cell membranes, room temperature 60 min; read-out: 5-HT2C Affinity Ki.
T1 construct: expressed in transfected cells; host or cells: CHO (Chinese Hamster Ovary) cells; membranes
T1 sequence (P28335 33-458): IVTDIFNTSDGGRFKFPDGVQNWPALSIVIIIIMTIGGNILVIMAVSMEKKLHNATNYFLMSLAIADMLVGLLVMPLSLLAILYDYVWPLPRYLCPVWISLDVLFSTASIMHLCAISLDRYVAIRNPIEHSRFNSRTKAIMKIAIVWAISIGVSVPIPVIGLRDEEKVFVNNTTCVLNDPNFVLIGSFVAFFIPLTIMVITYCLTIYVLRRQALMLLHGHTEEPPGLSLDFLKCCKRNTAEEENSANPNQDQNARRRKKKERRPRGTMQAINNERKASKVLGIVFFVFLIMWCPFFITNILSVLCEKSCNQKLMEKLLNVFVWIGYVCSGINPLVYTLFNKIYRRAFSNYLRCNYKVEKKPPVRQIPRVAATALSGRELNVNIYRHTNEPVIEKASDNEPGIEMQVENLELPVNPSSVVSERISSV

SMILES	Ki [µM]
Cc1cccc(-c2cc(C(F)(F)F)cc3c2OC(CN)C3)c1 (racemic) [Example 318, (±)-{[5-(trifluoromethyl)-7-(3-methylphenyl)-2,3-dihydro-1-benzofuran-2-yl]methyl}amine]	0.098
NCC1Cc2cccc(Nc3cccc(Cl)c3)c2O1 (racemic) [Example 190, (±)-N-[2-(aminomethyl)-2,3-dihydro-1-benzofuran-7-yl]-N-(3-chlorophenyl)amine]	0.186
NCC1Cc2cccc(-c3cccnc3)c2O1 (single isomer, unassigned; (-)) [Example 172, (−)-{[7-pyridin-3-yl-2,3-dihydro-1-benzofuran-2-yl]methyl}amine]	0.185
CNCC1Cc2cc(-c3cccc(OC)c3)cc(F)c2O1 (racemic) [Example 537, (±)-{7-fluoro-5-[3-methoxyphenyl]-2,3-dihydro-1-benzofuran-2-yl}methyl)methylamine]	1.69
CNCC1Cc2cc(-c3ccc(C)cc3)cc(F)c2O1 (racemic) [Example 538, (±)-{7-fluoro-5-[4-methylphenyl]-2,3-dihydro-1-benzofuran-2-yl}methyl)methylamine]	0.38
NCC1Cc2cccc(-c3cccc4ccccc34)c2O1 (racemic) [Example 33, (±)-1-[7-(1-naphthyl)-2,3-dihydro-1-benzofuran-2-yl]methanamine]	0.032
CC1(CN)Cc2cc(Cl)cc(-c3cccs3)c2O1 (racemic) [Example 114, (±)-(5-chloro-2-methyl-7-thien-2-yl-2,3-dihydro-1-benzofuran-2-yl)methylamine]	0.471
CNCC1Cc2cc(-c3ccccc3)cc(-c3ccc(C)cc3)c2O1 (racemic) [Example 513, (±)-{[7-(4-methylphenyl)-5-phenyl-2,3-dihydro-1-benzofuran-2-yl]methyl}methylamine]	1.15
COc1ccc2c(c1)OC(CN)C2 (racemic) [Example 30, (±)-1-(6-methoxy-2,3-dihydro-1-benzofuran-2-yl)methanamine]	0.191
NCC1Cc2cccc(CCc3ccccc3)c2O1 (racemic) [Example 120, (±)-1-[7-(2-phenylethyl)-2,3-dihydro-1-benzofuran-2-yl]methanamine]	0.128
NCC1Cc2cc(F)cc(-c3cccc(F)c3)c2O1 (racemic) [Example 196, (±)-{[5-fluoro-7-(3-fluorophenyl)-2,3-dihydro-1-benzofuran-2-yl]methyl}amine]	0.108
COc1ccc(-c2cccc3c2OC(CN)C3)c(OC)c1 (single isomer, unassigned; (+)) [Example 145, (+)-1-[7-(2,4-dimethoxyphenyl)-2,3-dihydro-1-benzofuran-2-yl]methanamine]	0.091
COc1cc(Cl)cc2c1OC(CN)C2 (racemic) [Example 111, (±)-1-(5-chloro-7-methoxy-2,3-dihydro-1-benzofuran-2-yl)methanamine]	0.026
NCC1Cc2cc(C(F)(F)F)cc(-c3ccc(F)c(F)c3)c2O1 (racemic) [Example 334, (±)-{[7-(3,4-difluorophenyl)-5-(trifluoromethyl)-2,3-dihydro-1-benzofuran-2-yl]methyl}amine]	0.324
CNCC1Cc2cc(-c3ccc(Cl)cc3)cc(F)c2O1 (racemic) [Example 539, (±)-{7-fluoro-5-[4-chlorophenyl]-2,3-dihydro-1-benzofuran-2-yl}methyl)methylamine]	0.209
NCC1Cc2cccc(Nc3cccc(C(F)(F)F)c3)c2O1 (racemic) [Example 184, (±)-N-2-(aminomethyl)-N-[3-(trifluoromethyl)phenyl]-2,3-dihydro-1-benzofuran-7-amine]	0.185

SMILES	Ki [µM]
NCC1Cc2cc(Cl)cc(C3CCCCC3)c2O1 (racemic) [Example 11, (±)-(5-chloro-7-cyclohexyl-2,3-dihydro-1-benzofuran-2-yl)methylamine]	0.106
NCC1Cc2cccc(-c3cc(Cl)cc(Cl)c3)c2O1 (racemic) [Example 35, (±)-1-[7-(3,5-dichlorophenyl)-2,3-dihydro-1-benzofuran-2-yl]methanamine]	0.141
NCC1Cc2cc(Cl)cc(-c3ccccc3)c2O1 (racemic) [Example 84, (±)-1-(5-chloro-7-phenyl-2,3-dihydro-1-benzofuran-2-yl)methanamine]	0.011
CNCC1Cc2cc(-c3ccccc3)cc(-c3cccc(C)c3)c2O1 (racemic) [Example 512, (±)-{[7-(3-methylphenyl)-5-phenyl-2,3-dihydro-1-benzofuran-2-yl]methyl}methylamine]	0.81
CNCC1Cc2cc(-c3ccccc3OC)cc(F)c2O1 (racemic) [Example 532, (±)-{7-fluoro-5-[2-methoxyphenyl]-2,3-dihydro-1-benzofuran-2-yl}methyl)methylamine]	3.35
CNCC1Cc2cc(C(F)(F)F)cc(-c3cccc(F)c3F)c2O1 (racemic) [Example 521, (±)-N-methyl-1-[7-(2,3-difluorophenyl)-5-(trifluoromethyl)-2,3-dihydro-1-benzofuran-2-yl]methanamine]	0.246
CNCC1Cc2cc(OC)cc(-c3cc(Cl)ccc3OC)c2O1 (racemic) [Example 502, (±)-{[7-(5-chloro-2-methoxyphenyl)-5-methoxy-2,3-dihydro-1-benzofuran-2-yl]methyl}methylamine]	0.06
Cc1ccccc1-c1cc(-c2ccccc2)cc2c1OC(CN)C2 (racemic) [Example 351, (±)-{[7-(2-methylphenyl)-5-phenyl-2,3-dihydro-1-benzofuran-2-yl]methyl}amine]	0.087
Cc1ccc(Nc2cccc3c2OC(CN)C3)c(C)c1 (racemic) [Example 180, (±)-N-[2-(aminomethyl)-2,3-dihydro-1-benzofuran-7-yl]-N-(2,4-dimethylphenyl)amine]	0.29
NCC1Cc2c(F)ccc(-c3ccccc3)c2O1 (racemic) [Example 98, (±)-1-(4-fluoro-7-phenyl-2,3-dihydro-1-benzofuran-2-yl)methanamine]	0.06
NCC1Cc2cc(-c3ccc(F)cc3)cc(F)c2O1 (racemic) [Example 387, (±)-{[7-fluoro-5-(4-fluorophenyl)-2,3-dihydro-1-benzofuran-2-yl]methyl}amine]	1.55
NCC1Cc2cccc(Cc3ccccc3)c2O1 (racemic) [Example 15, (±)-1-(7-benzyl-2,3-dihydro-1-benzofuran-2-yl)methanamine]	0.222
CNCC1Cc2cc(-c3ccccc3)cc(-c3ccccc3C)c2O1 (racemic) [Example 511, (±)-{[7-(2-methylphenyl)-5-phenyl-2,3-dihydro-1-benzofuran-2-yl]methyl}methylamine]	0.248
CNCC1Cc2cc(-c3ccccc3F)cc(F)c2O1 (racemic) [Example 530, (±)-{[7-fluoro-5-(2-fluorophenyl)-2,3-dihydro-1-benzofuran-2-yl]methyl}methylamine]	0.915
Cc1cc(C)cc(Nc2cccc3c2OC(CN)C3)c1 (racemic) [Example 192, (±)-N-[2-(aminomethyl)-2,3-dihydro-1-benzofuran-7-yl]-N-(3,5-dimethylphenyl)amine]	0.142
Cc1ccc(-c2cc(F)c3c(c2)CC(CN)O3)cc1 (racemic) [Example 385, (±)-{[7-fluoro-5-(4-methylphenyl)-2,3-dihydro-1-benzofuran-2-yl]methyl}amine]	1.35
